Experimental data taken from publication PMC8372404 (Frontiers in Neuroscience, 2021).
Where two headings read alike, the source gives them in different places.

Tests used:
[1] = tested on: [3H]-LCGA-17 binding site in rat brain membranes (putative α2δ); assay: [3H]-LCGA-17 radioligand competition binding assay
Danio rerio [2] = assay: Novel tank test (NTT); assay type: in vivo; conditions: for NTT. Time spent in upper half of tank, Median: 10 min after injection, 5 min; for NTT. Time spent in upper half of tank, Median / NTT. Distance traveled, Median: exp group
Protocol: (§1) Control groups were treated in parallel with vehicle alone. For drug injection, the fish were anesthetized briefly by placing them in 10°C water. The vehicle controls were tested in parallel.
(§2) Behavioral testing was initiated 10 min after drug injection, starting with the novel tank test (NTT), followed immediately thereafter by the light–dark box (LDB) and the social preference test (SPT). The NTT was adapted from [Maximino et al. (2013)] with the behavior video-recorded and the data processed using EthoVision XT14 (Noldus). The distance traveled, speed, number of visits to the bottom, middle and top thirds of the aquarium, respectively, and the times spent in each of these zones during the initial 5 min in the tank were recorded. A decreased time spent at the surface of the NTT apparatus reflects a reduction in exploratory behavior or increased hiding motivation ([Sackerman et al., 2010]). The behavior in the LDB ([Maximino et al., 2011]) and SPT ([Parker et al., 2014]) was video recorded and processed using RealTimer (Open Science LCC, Russia). The fish were added to the center zone of a three-zone aquarium and allowed to adapt for 1–2 min before removal of the septa separating the center from the flanking zones. The time spent and the number of visits to the light and dark flanking zones and the latency to enter the lit zone were recorded during a 5-min session. Stress of fish is associated with increased time spent in the dark compartment (scototaxis) ([Maximino et al., 2011]). For the SPT, the residence time and the number of visits to the three equally sized zones (near the shoal, in the center zone of the aquarium, and near the wall opposite to the shoal) were assessed during a 5-min session. Increased shoal preference (shoaling reflex) is thought to represent a protective response to a predator ([Nguyen et al., 2014]). All behavioral testing was done in the light phase using 500 lux (NTT, LDB) or 200 lux (SPT) illumination.

Danio rerio [3] = assay: Light–dark box (LDB); assay type: in vivo; conditions: for LDB. Time spent in lit compartment, Median: 5 min session, exp group; for LDB, effect on time spent in the lit compartment vs vehicle: most informative dosage, Figure 2C
Protocol: as §1, §2

Danio rerio [4] = assay: Social preference test (SPT); assay type: in vivo; conditions: for SPT. Time spent out of shoaling zone, Median: 5 min session, exp group; for SPT, effect on time spent out of the shoaling zone vs vehicle: most informative dosage, Figure 2D
Protocol: as §1, §2

[5] = competition of [3H]-LCGA-17 (16 nM) binding, rat brain membranes, Table S1
[6] = rat brain membranes, result in words
[7] = competition of [3H]-LCGA-17 binding to rat brain (cortical) membranes, text and Figure 3

Compound: CCCN(CCC)C1CCc2ccc(O)cc2C1 (stereo not shown) [7-OH-DPAT]
- cross-reactivity with / competition at the [3H]-LCGA-17 binding site [1]: no cross-reactivity
- IC50 [1, 5]: > 100 µM

Compound: CC(=O)[C@H]1CC[C@H]2[C@@H]3CC[C@H]4C[C@H](O)CC[C@]4(C)[C@H]3CC[C@]12C [Allopregnanolone]
- IC50 [1]: > 100 µM
- cross-reactivity with / competition at the [3H]-LCGA-17 binding site [1]: distinct

Compound: NC(N)=NCCCCN=C(N)N [Arcaine]
- IC50 [1, 5]: > 100 µM
- cross-reactivity with / competition at the [3H]-LCGA-17 binding site [1, 6]: no cross-reactivity

Compound: NCC(CC(=O)O)c1ccc(Cl)cc1 (stereo not shown) [Baclofen]
- IC50 [1, 5]: > 100 µM
- cross-reactivity with / competition at the [3H]-LCGA-17 binding site [1, 6]: no cross-reactivity

Compound: CC(C)(C)OC(=O)c1ncn2c1[C@@H]1CCCN1C(=O)c1c(Br)cccc1-2 [Bretazenil]
- IC50 [1]: > 100 µM
- cross-reactivity with / competition at the [3H]-LCGA-17 binding site [1]: distinct

Compound: COc1ccc(-n2nc3c4ccccc4[nH]cc-3c2=O)cc1 [CGS-9895]
- IC50 [1, 5]: > 100 µM
- cross-reactivity with / competition at the [3H]-LCGA-17 binding site [1, 6]: no cross-reactivity

Compound: CCCCCCN(CCCCCC)C(=O)Cc1c(-c2ccc(F)cc2)[nH]c2ccccc12 [FGIN-1-27]
- cross-reactivity with / competition at the [3H]-LCGA-17 binding site [1]: distinct
- IC50 [1, 5]: > 100 µM

Compound: NCCCC(=O)O [GABA, γ-aminobutyric acid]
- cross-reactivity with / competition at the [3H]-LCGA-17 binding site [1, 6]: no cross-reactivity

Compound: Fc1ccc(C(OCCN2CCN(CCCc3ccccc3)CC2)c2ccc(F)cc2)cc1 [GBR-12909]
- IC50 [1, 5]: > 100 µM

Compound: NCC1(CC(=O)O)CCCCC1 [Gabapentin]
- IC50 [1, 7]: ~11 µM
- IC50 ([1]; competition of [3H]-LCGA-17 binding to rat brain (cortical) membranes, text and Figure 3, listed as gabapentin): 11 µM

Compound: COc1ccc(-c2ccc(=N)n(CCCC(=O)O)n2)cc1 [Gabazine]
- IC50 [1, 5]: > 100 µM
- cross-reactivity with / competition at the [3H]-LCGA-17 binding site [1, 6]: no cross-reactivity

Compound: Oc1noc2c1CCNC2 [Gaboxadol (THIP), Gaboxadol]
- IC50 [1]: > 100 µM
- cross-reactivity with / competition at the [3H]-LCGA-17 binding site [1]: distinct

Compound: N[C@@H](CCC(=O)O)C(=O)O [Glutamate]
- IC50 [1, 5]: > 100 µM
- cross-reactivity with / competition at the [3H]-LCGA-17 binding site [1, 6]: no cross-reactivity

Compound: NCC(=O)O [Glycine]
- IC50 [1]: > 100 µM
- cross-reactivity with / competition at the [3H]-LCGA-17 binding site [1]: no cross-reactivity

Compound: O=C(CCCN1CCC(O)(c2ccc(Cl)cc2)CC1)c1ccc(F)cc1 [Haloperidol]
- cross-reactivity with / competition at the [3H]-LCGA-17 binding site [1, 6]: no cross-reactivity

Compound: CC(C(O)c1ccc(O)cc1)N1CCC(Cc2ccccc2)CC1 (stereo not shown) [Ifenprodil]
- IC50 [1, 5]: > 100 µM

Compound: O=C(c1ccc(F)cc1)C1CCN(CCn2c(=O)[nH]c3ccccc3c2=O)CC1 [Ketanserin]
- IC50 [1, 5]: > 100 µM
- cross-reactivity with / competition at the [3H]-LCGA-17 binding site [1, 6]: no cross-reactivity

Compound: N[C@@]1(C(=O)O)CC[C@H]2[C@H](C(=O)O)[C@H]21 [LY-354740]
- IC50 [1, 5]: > 100 µM
- cross-reactivity with / competition at the [3H]-LCGA-17 binding site [1, 6]: no cross-reactivity

Compound: Cn1ncnc1COc1nn2c(-c3c(F)cccc3F)nnc2cc1C1CCC1 [MK0343]
- IC50 [1, 5]: > 100 µM
- cross-reactivity with / competition at the [3H]-LCGA-17 binding site [1, 6]: distinct

Compound: NCc1cc(=O)[nH]o1 [Muscimol]
- cross-reactivity with / competition at the [3H]-LCGA-17 binding site [1]: no cross-reactivity
- IC50 [1, 5]: > 100 µM

Compound: CN1CCC[C@H]1c1cccnc1 [Nicotine]
- IC50 [1]: > 100 µM
- cross-reactivity with / competition at the [3H]-LCGA-17 binding site [1]: no cross-reactivity

Compound: CCC(C)N(C)C(=O)c1cc2ccccc2c(-c2ccccc2Cl)n1 (stereo not shown) [PK-11195]
- IC50 [1, 5]: > 100 µM

Compound: CC(=O)[C@H]1CC[C@H]2[C@@H]3CC=C4C[C@@H](O)CC[C@]4(C)[C@H]3CC[C@]12C [Pregnenolone]
- IC50 [1, 5]: > 100 µM

Compound: C[C@@H](CN1CCC(Cc2ccccc2)CC1)[C@@H](O)c1ccc(O)cc1 [Ro-256981]
- IC50 [1, 5]: > 100 µM
- cross-reactivity with / competition at the [3H]-LCGA-17 binding site [1, 6]: no cross-reactivity

Compound: Cn1c2ccc(F)cc2c2c(C(=O)N3CCCC3)cn(-c3ccccc3)c(=O)c21 [SL 651498]
- IC50 [1, 5]: > 100 µM
- cross-reactivity with / competition at the [3H]-LCGA-17 binding site [1, 6]: distinct

Compound: O=C(N/N=C/c1ccccc1O)c1ccccc1O [Salicylidene salicylhydrazide]
- cross-reactivity with / competition at the [3H]-LCGA-17 binding site [1]: distinct
- IC50 [1, 5]: > 100 µM

Compound: NCCCNCCCCNCCCN [Spermine]
- IC50 [1, 5]: > 100 µM
- cross-reactivity with / competition at the [3H]-LCGA-17 binding site [1, 6]: no cross-reactivity

Compound: O=C(CCCN1CCC2(CC1)C(=O)NCN2c1ccccc1)c1ccc(F)cc1 [Spiperone]
- cross-reactivity with / competition at the [3H]-LCGA-17 binding site [1, 6]: no cross-reactivity

Compound: CCN1CCCC1CNC(=O)c1cc(S(N)(=O)=O)ccc1OC (stereo not shown) [Sulpiride]
- IC50 [1, 5]: > 100 µM
- cross-reactivity with / competition at the [3H]-LCGA-17 binding site [1, 6]: no cross-reactivity

Compound: CC1(C)CC(=O)c2c(SCCO)sc(-c3nccs3)c2C1 [TB21007]
- IC50 [1, 5]: > 100 µM
- cross-reactivity with / competition at the [3H]-LCGA-17 binding site [1, 6]: distinct

Compound: C[C@]12CC[C@@H](O)C[C@H]1CC[C@@H]1[C@@H]2CC[C@]2(C)[C@@H](C(=O)CO)CC[C@@H]12 [THDOC]
- cross-reactivity with / competition at the [3H]-LCGA-17 binding site [1]: distinct
- IC50 [1, 5]: > 100 µM

Compound: Cc1ccc(-c2nc3ccc(C)cn3c2CC(=O)N(C)C)cc1 [Zolpidem]
- IC50 [1]: > 100 µM

Compound: COCCCC/C(=N\OCCN)c1ccc(C(F)(F)F)cc1 [fluvoxamine, Fluvoxamine]
- NTT. Time spent in upper half of tank, Median (Danio rerio [2]; 5 mg/kg): 41 s
- NTT. Distance traveled, Median (Danio rerio [2]; 5 mg/kg): 1267 cm
- NTT. Time spent in upper half of tank, Median (Danio rerio [2]; 10 mg/kg): 32 s
- NTT. Distance traveled, Median (Danio rerio [2]; 10 mg/kg): 1313 cm
- NTT, effect on time spent in the upper half of the tank vs vehicle (Danio rerio [2]; most informative dosage, Figure 2A: LCGA peptides 10 mg/kg, fluvoxamine 5 mg/kg, diazepam 5 mg/kg): anxiolytic-like effect
- LDB. Time spent in lit compartment, Median (Danio rerio [3]; 5 mg/kg): 118 s
- LDB. Time spent in lit compartment, Median (Danio rerio [3]; 10 mg/kg): 94 s
- LDB, effect on time spent in the lit compartment vs vehicle (Danio rerio [3]): Neither fluvoxamine nor the other LCGA peptides affected the behavior
- SPT. Time spent out of shoaling zone, Median (Danio rerio [4]; 5 mg/kg): 90 s
- SPT. Time spent out of shoaling zone, Median (Danio rerio [4]; 10 mg/kg): 84 s
- SPT, effect on time spent out of the shoaling zone vs vehicle (Danio rerio [4]): failed to affect behavior

Compound: O=C(O)C1=CCNCC1 [isoguvacine]
- cross-reactivity with / competition at the [3H]-LCGA-17 binding site [1, 6]: distinct

Compound: AspLysThrGlu (DKTE; printed: AspLysThrGlu) [LCGA-26]
- NTT. Time spent in upper half of tank, Median (Danio rerio [2]; 1 mg/kg i.p.): 58 s
- NTT. Distance traveled, Median (Danio rerio [2]; 1 mg/kg i.p.): 1365 cm
- NTT. Time spent in upper half of tank, Median (Danio rerio [2]; 10 mg/kg): 72 s
- NTT. Distance traveled, Median (Danio rerio [2]; 10 mg/kg): 1445 cm
- LDB. Time spent in lit compartment, Median (Danio rerio [3]; 1 mg/kg i.p.): 215 s
- LDB. Time spent in lit compartment, Median (Danio rerio [3]; 10 mg/kg): 243 s
- SPT. Time spent out of shoaling zone, Median (Danio rerio [4]; 1 mg/kg i.p.): 20 s
- SPT. Time spent out of shoaling zone, Median (Danio rerio [4]; 10 mg/kg): 27 s

Compound: PheLeuProTyr (FLPY; printed: PheLeuProTyr) [LCGA-83]
- NTT. Time spent in upper half of tank, Median (Danio rerio [2]; 1 mg/kg i.p.): 73 s
- NTT. Distance traveled, Median (Danio rerio [2]; 1 mg/kg i.p.): 1500 cm
- NTT. Time spent in upper half of tank, Median (Danio rerio [2]; 10 mg/kg): 76 s
- NTT. Distance traveled, Median (Danio rerio [2]; 10 mg/kg): 1589 cm
- LDB. Time spent in lit compartment, Median (Danio rerio [3]; 1 mg/kg i.p.): 128 s
- LDB. Time spent in lit compartment, Median (Danio rerio [3]; 10 mg/kg): 249 s
- LDB, effect on time spent in the lit compartment vs vehicle (Danio rerio [3]): Neither fluvoxamine (5 mg/kg) nor LCGA-59 and LCGA-83 (10 mg/kg) affected the behavior
- SPT. Time spent out of shoaling zone, Median (Danio rerio [4]; 1 mg/kg i.p.): 37 s
- SPT. Time spent out of shoaling zone, Median (Danio rerio [4]; 10 mg/kg): 46 s
- SPT, effect on time spent out of the shoaling zone vs vehicle (Danio rerio [4]): failed to affect behavior

Compound: pregnenolone sulfate [PREGS]
- IC50 [1, 7]: > 100 µM
- cross-reactivity with / competition at the [3H]-LCGA-17 binding site [1, 6]: failed to compete
